Measurements reported in patent US8604016B2, “Heterocyclic inhibitors of glutaminase” (Calithera Biosciences Inc., priority 2011, dated 2013).
Each block holds one compound with its values, some of them ahead of it.

Columns and labels:
[1] = biological target: T1, recombinant form of Glutaminase 1 (GAC) (Homo sapiens, UniProt O94925); test: Recombinant Enzyme Assay (GAC coupled to GDH, NADH absorbance, no preincubation); assay type: biochemical; conditions: no preincubation; read-out: GAC Delta N2 IC50 no preinc
Procedure, shortened: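 GAC (4 nM) in Tris-HCl pH 8.0 with 150 mM K2HPO4, EDTA, BSA, DTT, plus 4 units/ml GDH and 4 mM ADP, without preincubation. Absorbance at 340 nm was read kinetically for 15 min at 20° C. Slopes (mAU/min) were compared with DMSO-only and control-compound wells on the same plate.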

[2] = biological target: T1, recombinant form of Glutaminase 1 (GAC); test: Recombinant Enzyme Assay - Time Dependence (60 minutes enzyme/compound preincubation); assay type: biochemical
Description: The enzyme/compound mix was sealed with sealing foil (USA Scientific) and allowed to incubate, with mild agitation, for 60 minutes at 20° C. Enzymatic reaction was started with the addition of 50 μL of substrate solution (50 mM Tris-HCl pH 8.0, 0.2 mM EDTA, 150 mM K2HPO4, 0.1 mg/ml BSA, 1 mM DTT, 20 mM L-glutamine, 2 mM NAD^+, and 10 ppm antifoam) and read in a Molecular Devices M5 plate reader at 20° C. The plate reader was configured to read absorbance (λ=340 nm) in kinetic mode for 15 minutes. Data was recorded as milli-absorbance units per minute and slopes were compared to a control compound and a DMSO-only control on the same plate. Compounds with slopes less than the DMSO control were considered inhibitors and plate variability was assessed using the control compound.

[3] = Caco-2 Permeability Assay (bidirectional); assay type: in vitro ADME; conditions: human; for recovery at 120 min, 1 μM / Papp A→B at 120 min, 1 μM / Papp B→A at 120 min, 1 μM: pH 7.4; for efflux ratio at 120 min, 1 µM / Papp A→B at 120 min, 1 μM / Papp B→A at 120 min, 1 μM / permeability class (Low/High absorption potential) at 120 min, 1 µM: Caco-2; for efflux ratio at 120 min, 1 µM: (Papp B→A)/(Papp A→B); for Papp A→B at 120 min, 1 μM: Direction A→B; for Papp A→B at 120 min, 1 μM / Papp B→A at 120 min, 1 μM: unit not given (thresholds in 10^−6 cm/s); for Papp B→A at 120 min, 1 μM: Direction B→A; for permeability class (Low/High absorption potential) at 120 min, 1 µM: read-out: Permeability Classification
Source text: (§1) Caco-2 cells are commonly used in a confluent monolayer on a cell culture insert filter. When cultured in this format and under specific conditions, the cells become differentiated and polarized such that their phenotype, morphologically and functionally resembles the enterocytes lining the small intestine. The cell monolayer provides a physical and biochemical barrier to the passage of small molecules, and is widely used across the pharmaceutical industry as an in vitro model of the human small intestinal mucosa to predict the absorption of orally administered drugs (Hidalgo et al., Gastroenterology, 1989; Artursson, J. Pharm. Sci., 1990). The correlation between the in vitro apparent permeability (P ? app) across Caco-2 monolayers and the in vivo absorption is well established (Artursson et al., Biochem. Biophys. Res. Comm., 1991).
(§2) The present assay was used to determine the bidirectional permeability of the compounds of the invention through Caco-2 cell monolayers. Caco-2 cells were grown in confluent monolayers where the media of both the apical (A) and basolateral (B) sides were at pH 7.4. Compounds were dosed at 1 μM in the presence of 200 μM Lucifer Yellow, on the apical side (A→B) or the basolateral side (B→A) for assessment, in duplicate.
(§3) The absorption potential of compounds were classified as either Low (P-app <1×10^−6 cm/s) or High (P-app >1×10^−6 cm/s).

[4] = test system: Caco-2 cell monolayers; test: Caco-2 Permeability Assay (bidirectional); assay type: in vitro ADME
Source text: as §1, §2, §3

[5] = read-out: GAC Delta N2 IC50 60 min preinc
[6] = read-out: GAC Delta N2 IC50 60 min

SMILES: CC(C)(C)OC(=O)N1CCN(Cc2cccc(CC(=O)Nc3nnc(CCSCc4nnc(NC(=O)Cc5cccc(CN6CCN(C(=O)OC(C)(C)C)CC6)c5)s4)s3)c2)CC1 [Compound 275]
IC50 [1]: 2200 nM
IC50 [2, 5]: 150 nM

SMILES: O=C(Cc1cccc(Br)c1)Nc1nnc(CCSCCc2nnc(NC(=O)Cc3cccc(Br)c3)s2)s1 [Compound 270]
IC50 [1]: 7400 nM
IC50 [2, 5]: > 5000 nM

SMILES: O=C(CN1CCOCC1)NCc1ccc(CC(=O)Nc2nnc(CCCCc3ccc(NC(=O)Cc4ccccc4)nn3)s2)cc1 [Compound 442]
IC50 [2, 6]: 7 nM

SMILES: O=C(Nc1nnc(CCCCc2nnc(NC(=O)C(O)c3cccc(Cl)c3)s2)s1)C(O)c1cccc(Cl)c1 (centres unmarked) [Compound 306]
IC50 [1]: 520 nM
IC50 [2, 5]: 31 nM

SMILES: O=C(Cc1ccccc1)Nc1nnc(CCCCc2nnc(NC(=O)Cc3cccc(Cn4cccn4)c3)s2)s1 [Compound 392]
IC50 [2, 5]: 14 nM

SMILES: CC(C(=O)Nc1ccc(CCCCc2nnc(NC(=O)C(O)c3cccc(Cl)c3)s2)nn1)c1ccccc1 (centres unmarked) [Compound 468]
IC50 [2, 6]: 16 nM

SMILES: Nc1ccc(CCCCc2nnc(NC(=O)C(O)c3cccc(Cl)c3)s2)nn1 (centres unmarked) [Compound 411]
IC50 [2, 6]: 220 nM

SMILES: CC(C)NC(=O)Nc1nnc(CCCCc2nnc(NC(=O)Cc3ccccc3)s2)s1 [Compound 438]
IC50 [2, 6]: 740 nM

SMILES: CNCc1cccc(CC(=O)Nc2nnc(CCCCc3nnc(NC(=O)Cc4ccccc4)s3)s2)c1 [Compound 393]
IC50 [2, 5]: 100 nM

SMILES: NCc1cccc(CC(=O)Nc2nnc(CCCCc3nnc(NC(=O)Cc4ccccc4)s3)s2)c1 [Compound 437]
IC50 [2, 6]: 70 nM

SMILES: CC(C(=O)Nc1nnc(CCCCc2ccc(NC(=O)Cc3cccc(CNC(=O)OC(C)(C)C)c3)nn2)s1)c1ccccc1 (centres unmarked) [Compound 489]
IC50 [2, 6]: 8 nM

SMILES: CCCC(=O)OCN(C(=O)Cc1ccccc1)c1nnc(CCCCc2ccc(NC(=O)Cc3cccc(OC(F)(F)F)c3)nn2)s1 [Compound 629]
IC50 [2, 6]: > 20000 nM

SMILES: O=C(Nc1ccc(CCCCc2nnc(NC(=O)C(O)c3cccc(Cl)c3)s2)nn1)C(O)c1cccc(Cl)c1 (centres unmarked) [Compound 446]
IC50 [2, 6]: 11 nM

SMILES: O=C(Nc1nnc(CCCCc2nnc(NC(=O)C(O)c3cccc(Br)c3)s2)s1)C(O)c1cccc(Br)c1 (centres unmarked) [Compound 288]
IC50 [1]: 670 nM
IC50 [2, 5]: 40 nM

SMILES: O=C(Nc1nnc(CCCCc2nnc(NC(=O)[C@@H](O)c3ccccc3)s2)s1)[C@@H](O)c1ccccc1 [Compound 92]
IC50 [1]: 380 nM
IC50 [2, 5]: 140 nM

SMILES: CC(C)(C)OC(=O)NCc1cc(CC(=O)Nc2nnc(CCCCc3ccc(NC(=O)Cc4ccccc4)nn3)s2)ccc1F [Compound 492]
IC50 [2, 6]: 6 nM

SMILES: O=C(Cc1ccccc1)Nc1nnc(CCCCc2nnc(NC(=O)Cc3cccc(OCCN4CCOCC4)c3)s2)s1 [Compound 390]
IC50 [2, 5]: 42 nM

Further lines, with some results ahead:

IC50 [1]: 130 nM
IC50 [2, 5]: 24 nM
SMILES: O=C(Cc1ccccc1)Nc1nnc(CCCCc2nnc(NC(=O)C(O)c3cccc(Cl)c3)s2)s1 (centres unmarked) [Compound 527]

recovery at 120 min, 1 μM ([3]; Caco-2, pH 7.4, Direction A→B): 56%
recovery at 120 min, 1 μM ([3]; Caco-2, pH 7.4, Direction B→A): 68%
efflux ratio at 120 min, 1 µM [3]: 3.9
Papp A→B at 120 min, 1 μM [3]: 0.61 ×10⁻⁶ cm/s
Papp B→A at 120 min, 1 μM [3]: 2.37 ×10⁻⁶ cm/s
permeability class (Low/High absorption potential) at 120 min, 1 µM [3]: < 1 ×10⁻⁶ cm/s
SMILES: O=C(Cc1cccc(OC(F)(F)F)c1)Nc1ccc(CCCCc2nnc(NC(=O)Cc3cccc(OC(F)(F)F)c3)s2)nn1 [Compound 660]
Significant Efflux [4]: Yes (efflux ratios being significant when greater than or equal to 3 when the Papp (B→A) was greater than or equal to 1×10^−6 cm/s)

recovery at 120 min, 1 μM ([3]; Caco-2, pH 7.4, Direction A→B): 60%
recovery at 120 min, 1 μM ([3]; Caco-2, pH 7.4, Direction B→A): 67%
efflux ratio at 120 min, 1 µM [3]: 6
Papp A→B at 120 min, 1 μM [3]: 8.52 ×10⁻⁶ cm/s
Papp B→A at 120 min, 1 μM [3]: 51 ×10⁻⁶ cm/s
permeability class (Low/High absorption potential) at 120 min, 1 µM [3]: > 1 ×10⁻⁶ cm/s
SMILES: O=C(Cc1cccc(OC(F)(F)F)c1)Nc1ccc(CCCCc2nnc(NC(=O)[C@H](O)c3ccccc3)s2)nn1 [Compound 705]
Significant Efflux [4]: Yes (efflux ratios being significant when greater than or equal to 3 when the Papp (B→A) was greater than or equal to 1×10^−6 cm/s)

recovery at 120 min, 1 μM ([3]; Caco-2, pH 7.4, Direction A→B): 41%
recovery at 120 min, 1 μM ([3]; Caco-2, pH 7.4, Direction B→A): 52%
efflux ratio at 120 min, 1 µM [3]: 7.6
Papp A→B at 120 min, 1 μM [3]: 4.94 ×10⁻⁶ cm/s
Papp B→A at 120 min, 1 μM [3]: 37.5 ×10⁻⁶ cm/s
permeability class (Low/High absorption potential) at 120 min, 1 µM [3]: > 1 ×10⁻⁶ cm/s
SMILES: O=C(Cc1ccccc1Cl)Nc1ccc(CCCCc2nnc(NC(=O)Cc3ccccc3F)s2)nn1 [Compound 533]
Significant Efflux [4]: Yes (efflux ratios being significant when greater than or equal to 3 when the Papp (B→A) was greater than or equal to 1×10^−6 cm/s)

recovery at 120 min, 1 μM ([3]; Caco-2, pH 7.4, Direction A→B): 65%
recovery at 120 min, 1 μM ([3]; Caco-2, pH 7.4, Direction B→A): 76%
efflux ratio at 120 min, 1 µM [3]: 6
Papp A→B at 120 min, 1 μM [3]: 8.23 ×10⁻⁶ cm/s
Papp B→A at 120 min, 1 μM [3]: 49.5 ×10⁻⁶ cm/s
permeability class (Low/High absorption potential) at 120 min, 1 µM [3]: > 1 ×10⁻⁶ cm/s
SMILES: CC(C(=O)Nc1nnc(CCCCc2ccc(NC(=O)Cc3ccccc3)nn2)s1)c1ccccc1 (centres unmarked) [Compound 616]
Significant Efflux [4]: Yes (efflux ratios being significant when greater than or equal to 3 when the Papp (B→A) was greater than or equal to 1×10^−6 cm/s)

IC50 [2, 6]: 7 nM
SMILES: Cc1ccccc1CC(=O)Nc1nnc(CCCCc2ccc(NC(=O)Cc3ccccc3Cl)nn2)s1 [Compound 535]

IC50 [2, 6]: 6 nM
SMILES: CN(Cc1cc(CC(=O)Nc2nnc(CCCCc3ccc(NC(=O)Cc4ccccc4)nn3)s2)ccc1F)C(=O)OC(C)(C)C [Compound 569]

IC50 [2, 6]: 13 nM
SMILES: CC(C)(C)OC(=O)NCc1cccc(CC(=O)Nc2nnc(CCCCc3ccc(NC(=O)C(O)(CO)c4ccccc4)nn3)s2)c1 (centres unmarked) [Compound 507]

IC50 [2, 6]: 5 nM
SMILES: CC(NC(=O)OC(C)(C)C)c1cc(CC(=O)Nc2nnc(CCCCc3ccc(NC(=O)Cc4ccccc4)nn3)s2)ccc1F (centres unmarked) [Compound 653]

IC50 [2, 6]: 9 nM
SMILES: CC(NC(=O)OC(C)(C)C)c1cccc(CC(=O)Nc2ccc(CCCCc3nnc(NC(=O)C(C)c4ccccc4)s3)nn2)c1 (centres unmarked) [Compound 603]

IC50 [2, 6]: 11 nM
SMILES: COC(C(=O)Nc1ccc(CCCCc2nnc(NC(=O)Cc3cccc(CNC(=O)OC(C)(C)C)c3)s2)nn1)c1ccccc1 (centres unmarked) [Compound 508]

IC50 [2, 6]: 9 nM
SMILES: CC(C(=O)Nc1nnc(CCCCc2ccc(NC(=O)Cc3ccccc3)nn2)s1)c1ccc(F)c(CNC(=O)OC(C)(C)C)c1 (centres unmarked) [Compound 568]

IC50 [2, 6]: 13 nM
SMILES: COC(C(=O)Nc1nnc(CCCCc2ccc(NC(=O)Cc3cccc(CNC(=O)CC(C)(O)C(F)(F)F)c3)nn2)s1)c1ccccc1 (centres unmarked) [Compound 605]

IC50 [2, 6]: 15 nM
SMILES: COC(C(=O)Nc1nnc(CCCCc2ccc(NC(=O)Cc3cccc(CNC(=O)CC(O)C(F)(F)F)c3)nn2)s1)c1ccccc1 (centres unmarked) [Compound 604]

IC50 [2, 6]: 19 nM
SMILES: O=C(Cc1ccccc1)Nc1ccc(CCCCc2nnc(NC(=O)Cc3ccc(F)c(CN4CCNCC4)c3)s2)nn1 [Compound 494]

IC50 [2, 6]: 430 nM
SMILES: CCCC(=O)OCN(C(=O)C(CO)c1cccc(CNC(=O)OC(C)(C)C)c1)c1nnc(CCCCc2ccc(NC(=O)Cc3ccccc3)nn2)s1 (centres unmarked) [Compound 567]

IC50 [2, 6]: 7 nM
SMILES: CC(C(=O)Nc1nnc(CCCCc2ccc(NC(=O)Cc3cccc(CNC(=O)CC(C)(O)C(F)(F)F)c3)nn2)s1)c1ccccc1 (centres unmarked) [Compound 607]

IC50 [2, 6]: 10 nM
SMILES: CC(C(=O)Nc1ccc(CCCCc2nnc(NC(=O)Cc3ccccc3)s2)nn1)c1ccc(F)c(CN(C)C(=O)OC(C)(C)C)c1 (centres unmarked) [Compound 599]

IC50 [2, 6]: 10 nM
SMILES: COC(C(=O)Nc1nnc(CCCCc2ccc(NC(=O)Cc3cccc(CNC(=O)OC(C)(C)C)c3)nn2)s1)c1ccccc1 (centres unmarked) [Compound 509]

IC50 [2, 6]: 7 nM
SMILES: CC(=O)N1CCN(Cc2cc(CC(=O)Nc3nnc(CCCCc4ccc(NC(=O)Cc5ccccc5)nn4)s3)ccc2F)CC1 [Compound 528]

IC50 [2, 6]: 580 nM
SMILES: O=C(Cc1ccccc1)Nc1ccc(CCCCc2nnc(NC(=O)CC3=CN4CCCN=C4S3)s2)nn1 [Compound 511]
